Measurements reported in patent US7556795B2, “Radiopharmaceutical formulations” (Bracco Imaging S.p.A., priority 2002, dated 2009).

Experiment: Radiochemical purity (RCP) of 99mTc labeled peptide by HPLC
Type: physicochemical
Details: 99mTc complex, 4 μg ligand, 300 μL EtOH, ~40 mCi 99mTcO4-, average of multiple experiments; for Percent RCP at 6 hours: prepared at room temperature; for Percent RCP at 15 min: room temperature 15 min
Experimental: To prepare the ^99mTc complex of Compound 1, 300 μL of ethanol, 50 μL of ligand solution (4 μg Compound 1), 200 μL of gentisic acid solution (20 mg), 50 μL of hydroxypropyl-γ-cyclodextrin solution (2.5 mg) 100 μL of stannous gluconate solution (40 μg of SnCl2), and ^99mTcO4^− (˜40 mCi) was added. Water was added to bring the final volume to 1.0 mL, and the reaction was heated at 100° C. for 15-20 min.
The ^99mTc labeled peptide purity was determined by HPLC using a Vydac C18 protein and peptide analytical column, 300 A pore size, 4.6×250 mm column length. The following gradient (flow rate 1 mL/min) was used: Isocratic elution 78% H2O (0.1% TFA)/22% CH3CN (0.1% TFA) for 20 min, gradient from 78% to 40% CH3CN (0.1% TFA) over 5 min, hold at 40% CH3CN (0.1% TFA) for 10 min, ramp from 40% to 78% CH3CN (0.1% TFA) over 5 min.
To prepare the ^99mTc complex, 50 μL of ligand solution (4 μg Compound 1-4), 300 μL of EtOH, 250 μL of gentisic acid solution (20 mg), 50 μL of 1SnCl2: 34 Gluconic acid (40 μg of SnCl2), and ^99mTcO4^− (˜40 mCi, Syncor) was added. Water was added to bring the final volume to 1.0 mL, and the reaction was allowed to stand at room temperature for 15 min. The solutions were then analyzed for RCP as described in Example 2.
To 50 μL of the Compound 1 solution (4 μg) was added ^99mTcO4^− (190 μL, 41.5 mCi), 0.458 mL of H2O, 50 μL of the stannous gluconate solution (40 μg of SnCl2) and 262 μL of gentisic acid solution (20 mg). The reaction was heated at 100° for 5 min. prior to HPLC analysis, which was performed using the following system: Vydac C-18 Protein and Peptide column (4.6×250 mm) eluted with 78% H2O (0.1% TFA)/22% CH3CN (0.1% TFA) for 20′, ramped from 78% to 40% H2O (0.1% TFA) in 5′, held at 40% H2O (0.1% TFA) for 10′, then ramped from 40% to 78% H2O (0.1% TFA) in 5′. Flow rate: 1 mL/min. The resulting RCP was 87.4% initially and 87.1% at 6 hours. The recovery from the vial was 67%.

CSCCC(NC(=O)[C@H](CC(C)C)NC(=O)[C@H](Cc1cnc[nH]1)NC(=O)CNC(=O)[C@@H](NC(=O)[C@H](C)NC(=O)[C@H](Cc1c[nH]c2ccccc12)NC(=O)[C@H](CCC(N)=O)NC(=O)CCCCNC(=O)CNC(=O)[C@H](CS)NC(=O)[C@H](CO)NC(=O)CN(C)C)C(C)C)C(N)=O (stereo partly shown) [Compound 1]
Percent RCP at 6 hours: 88.1%

CSCC[C@H](NC(=O)[C@H](CC(C)C)NC(=O)[C@H](Cc1cnc[nH]1)NC(=O)CNC(=O)[C@@H](NC(=O)[C@H](C)NC(=O)[C@H](Cc1c[nH]c2ccccc12)NC(=O)[C@H](CCC(N)=O)NC(=O)CCCCNC(=O)CNC(=O)[C@H](CS)NC(=O)CNC(=O)CN(C)C)C(C)C)C(N)=O [Compound 2]
Percent RCP at 6 hours: 78.7% | Percent RCP at 15 min: 80.8%

CSCC[C@H](NC(=O)[C@H](CC(C)C)NC(=O)[C@H](Cc1cnc[nH]1)NC(=O)CNC(=O)[C@@H](NC(=O)[C@H](C)NC(=O)[C@H](Cc1c[nH]c2ccccc12)NC(=O)[C@H](CCC(N)=O)NC(=O)CCCCNC(=O)CNC(=O)[C@H](CS)NC(=O)[C@H](CO)NC(=O)CN)C(C)C)C(N)=O [Compound 3]
Percent RCP at 6 hours: 82.4% | Percent RCP at 15 min: 86.7%

CSCC[C@H](NC(=O)[C@H](CC(C)C)NC(=O)[C@H](Cc1cnc[nH]1)NC(=O)CNC(=O)[C@@H](NC(=O)[C@H](C)NC(=O)[C@H](Cc1c[nH]c2ccccc12)NC(=O)[C@H](CCC(N)=O)NC(=O)CCCCNC(=O)CNC(=O)[C@H](CS)NC(=O)CNC(=O)CN)C(C)C)C(N)=O [Compound 4]
Percent RCP at 6 hours: 83.3% | Percent RCP at 15 min: 83.3%
